How the values were obtained:
RPMI 8226 = test: Anti-proliferative activity, 96 hours; conditions: Homo sapiens, RPMI-8226, 96 h
SU-DHL-5 = test: Anti-proliferative activity, 96 hours; conditions: Homo sapiens, SU-DHL-5, 96 h
Jeko-1 = test: Anti-proliferative activity, 96 hours; conditions: Homo sapiens, JeKo-1, 96 h
IKZF1 = IKZF1 (Homo sapiens, UniProt Q13422+Q96SW2); test: Ikaros degradation in Ki-JK cells by flow cytometry; format: cell-based; set-up: host or cells: Ki-JK cells
Procedure: Flow cytometry was used to assess the Ikaros degradation characteristics and evaluate the mechanism of Compound 1. […] The cells were prepared for staining using the FOXP3 Fix/Perm Buffer Set (BioLegend, 421403) according to the manufacturer's instructions at 1.5, 3, and 6 hours. IKZF1-AF488 (564867) and IgG1-488 (557782) (BD Biosciences) were diluted 1:100 in Perm Buffer. Signal was detected using the Guava® easyCyte™ Flow Cytometer. […] Degradation was not observed with the combination of Compound 1 and bortezomib or MLN-4924.

Maver-1 = test: Anti-proliferative activity, 96 hours; conditions: Homo sapiens, Maver1, 96 h
IKZF1/3 [1] = test: Ex vivo IKZF1/3 degradation in PBMC, cynomolgus monkey; format: cell-based; conditions: cynomolgus monkey cells
Procedure: (§1) IKZF1/3 are not degraded in mouse cells treated with thalidomide or its IMiD® analogs because of a single amino acid difference in mouse cereblon compared to human cereblon that causes steric hindrance and prevents recruitment of IKZF1/3. Ex vivo studies were performed in peripheral blood cells (PBMC) of mice, rats, dogs, and monkeys to identify relevant species for IND enabling-toxicity studies based on the degree of IKZF1 degradation by Compound 1. IKZF1 was not degraded in mouse or rat cells by Compound 1, thus, while rat could not be considered a pharmacologically relevant species for human risk assessment, it was chosen as the rodent species for toxicological studies because it is widely used in toxicity testing and a substantial historical toxicology database is available. […] Therefore, cynomolgus monkey was chosen for non-rodent toxicological studies.

RPMI-8226 tumors = test: RPMI-8226 multiple myeloma xenograft, CB17 SCID mice (Example 13); format: in vivo
Procedure: (§2) Compound 1 efficacy in two multiple myeloma cell lines (NC-H929) and (RPMI-8226) was evaluated at four different doses: 3 μg/kg, 10 μg/kg, 30 μg/kg, and 100 μg/kg. Compound 1 was administered QD (every day) orally (PO). […]
Statistical analysis was performed using two-way analysis of variance (ANOVA). Data are expressed as MTV±SEM.

IKZF1 and IKZF3 = IKZF1 and IKZF3 in blood cells of a monkey by flow cytometry; format: in vivo, cynomolgus monkey; conditions: 30 μg/kg oral gavage, 4-hour and 24-hour timepoint
Procedure: One fasted male cynomolgus monkey was administered Compound 1 formulated in 1% carboxymethylcellulose sodium+20% PEG400 in citrate buffer at 30 μg/kg by oral gavage. At indicated timepoints, blood was collected from a peripheral vessel from a restrained, non sedated monkey. 50 uL of whole blood was added to a flow tube with 1 ml PBS, centrifuged for 5 minutes at 400×g and supernatant discarded. Blood was lysed in 1 mL of lysis buffer for 10-15 minutes at room temperature, centrifuged for 5 minutes at 400× and supernatant discarded. PBS (1 mL) was added to each tube, centrifuged for 5 minutes at 400×g and supernatant discarded. PBS (1 mL) was added together with 1 ul of Zombie NIR dye to the white blood cells and incubated for 20 minutes at room temperature. The cells were centrifuged for 5 minutes at 400×g and supernatant discarded. Fixation buffer (1 mL) was added and incubated for 20 minutes at room temperature. Cells were washed with permeabilization buffer (1 mL) and centrifuged for 5 minutes at 400×g and supernatant discarded. […] Cells were washed twice with PBS (1 mL), resuspended in PBS and analyzed analyzed on a BD LSR Fortessa Flow Cytometer. FIG. 24 is a graph of the percent mean fluorescence intensity of IKZF1 and IZKF3 at 4 h and 24 hr post dose compared to the pre-dose sample. […]

Pfeiffer = test: Anti-proliferative activity, 96 hours; conditions: Homo sapiens
TMD8 DLBCL tumors = conditions: Compound 1 50 μg/kg, Ibrutinib 12500 μg/kg
Procedure: A xenograft study was conducted in female CB17 SCID mice bearing TMD8 DLBCL tumors. Female SCID mice were inoculated subcutaneously in the right flank with 5×10^6 tumors cells in 0.2 mL of PBS supplemented with matrigel (PBS:matrigel=1:1). Tumor volume was measured twice weekly in two dimensions using calipers, and volume was calculated using the formula: (w2×l)/2=mm^3, assuming 1 mg is equivalent to 1 mm^3 of tumor volume. […] Treatment began on Day 0 with established subcutaneous TMD8 tumors with a mean tumor volume (MTV) of 107-108 mm^3.
All agents were administered to mice bearing TMD8 tumors on day 0 and dosed PO daily until individual tumor volumes reached or exceeded 1500 mm^3, at which point dosing stopped and the individual mouse was removed from the study. Compound 1 was dosed at 50 μg/kg and was formulated in PEG400 (30% v/v)+70% v/v HPMC (1% w/v) in citrate buffer (pH 5). Ibrutinib was dosed at 12.5 mg/kg and formulated in 0.5% MC+0.4% cremophor EL+0.1% sodium lauryl sulfate. Compound 1 was also dosed in combination with Ibrutinib at their respective single agent doses. Body weight and MTV was measured on a 2× weekly schedule and the study end point was when all mice were removed from the study on day 54. Statistical analysis was performed using survival analysis and the Logrank test (Mantel-Cox test). Data are expressed as MTV±SEM.

DOHH-2 = test: Anti-proliferative activity, 96 hours; conditions: Homo sapiens, DOHH-2, 96 h
[2] = tested on: activated B-cell DLBCL lines; test: Anti-cancer activity in ABC-DLBCL cell lines; format: cell-based; conditions: three of six responsive, read-out: mean IC50 amongst the responsive lines
IKZF1/3 [3] = test: Ex vivo IKZF1/3 degradation in PBMC, dog; format: cell-based; conditions: dog cells
Procedure: as §1

NHL cell lines = test: NHL cell line growth inhibition assay (CellTiter-Glo, 96 hr); format: cell-based; conditions: variety of cancer assays (FIG. 45A-C, FIG. 52)
tumor xenografts = test: Mouse xenograft tumor models (summary); format: in vivo
Procedure: as §2

[4] = tested on: 8 multiple myeloma cell lines; test: Growth of 8 multiple myeloma cell lines (CellTiter-Glo, 96 hour); format: cell-based
Rec-1 = test: Anti-proliferative activity, 96 hours; conditions: Homo sapiens, Rec1, 96 h
IKZF1/3 [5] = test: Biomarker assessment in MM and ALCL tumor bearing studies; format: in vivo
H929 = test: Anti-proliferative activity, 96 hours; conditions: Homo sapiens, NCI-H929, 96 h
[6] = all eight multiple myeloma cell lines

IKZF1, sequence (Q13422 whole entry): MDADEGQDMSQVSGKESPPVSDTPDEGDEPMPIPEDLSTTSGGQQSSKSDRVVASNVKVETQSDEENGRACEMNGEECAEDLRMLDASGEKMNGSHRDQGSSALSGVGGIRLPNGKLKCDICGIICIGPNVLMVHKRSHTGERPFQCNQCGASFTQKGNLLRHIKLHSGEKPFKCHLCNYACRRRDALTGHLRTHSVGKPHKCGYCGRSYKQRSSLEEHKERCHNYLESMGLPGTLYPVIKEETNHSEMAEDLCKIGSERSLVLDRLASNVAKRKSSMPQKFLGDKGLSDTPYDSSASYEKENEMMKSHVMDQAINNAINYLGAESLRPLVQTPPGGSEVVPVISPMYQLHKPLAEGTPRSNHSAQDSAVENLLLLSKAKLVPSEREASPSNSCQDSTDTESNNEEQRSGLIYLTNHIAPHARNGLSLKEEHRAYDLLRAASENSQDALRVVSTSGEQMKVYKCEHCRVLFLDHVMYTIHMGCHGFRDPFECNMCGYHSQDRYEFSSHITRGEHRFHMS
IKZF1, sequence (Q96SW2 whole entry): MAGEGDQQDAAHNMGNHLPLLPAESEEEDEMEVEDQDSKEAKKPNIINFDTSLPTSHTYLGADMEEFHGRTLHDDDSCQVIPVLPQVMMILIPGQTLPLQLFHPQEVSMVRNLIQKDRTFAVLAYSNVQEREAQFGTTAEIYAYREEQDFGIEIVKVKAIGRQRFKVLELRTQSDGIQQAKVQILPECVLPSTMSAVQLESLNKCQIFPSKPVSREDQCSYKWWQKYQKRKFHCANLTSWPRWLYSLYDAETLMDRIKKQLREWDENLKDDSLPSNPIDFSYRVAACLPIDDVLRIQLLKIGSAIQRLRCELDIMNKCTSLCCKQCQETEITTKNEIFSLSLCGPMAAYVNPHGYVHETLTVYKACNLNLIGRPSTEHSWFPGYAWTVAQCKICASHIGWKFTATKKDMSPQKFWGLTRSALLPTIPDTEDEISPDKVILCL
IKZF1, sequence (Q16531 2-1140 partner limits assumed): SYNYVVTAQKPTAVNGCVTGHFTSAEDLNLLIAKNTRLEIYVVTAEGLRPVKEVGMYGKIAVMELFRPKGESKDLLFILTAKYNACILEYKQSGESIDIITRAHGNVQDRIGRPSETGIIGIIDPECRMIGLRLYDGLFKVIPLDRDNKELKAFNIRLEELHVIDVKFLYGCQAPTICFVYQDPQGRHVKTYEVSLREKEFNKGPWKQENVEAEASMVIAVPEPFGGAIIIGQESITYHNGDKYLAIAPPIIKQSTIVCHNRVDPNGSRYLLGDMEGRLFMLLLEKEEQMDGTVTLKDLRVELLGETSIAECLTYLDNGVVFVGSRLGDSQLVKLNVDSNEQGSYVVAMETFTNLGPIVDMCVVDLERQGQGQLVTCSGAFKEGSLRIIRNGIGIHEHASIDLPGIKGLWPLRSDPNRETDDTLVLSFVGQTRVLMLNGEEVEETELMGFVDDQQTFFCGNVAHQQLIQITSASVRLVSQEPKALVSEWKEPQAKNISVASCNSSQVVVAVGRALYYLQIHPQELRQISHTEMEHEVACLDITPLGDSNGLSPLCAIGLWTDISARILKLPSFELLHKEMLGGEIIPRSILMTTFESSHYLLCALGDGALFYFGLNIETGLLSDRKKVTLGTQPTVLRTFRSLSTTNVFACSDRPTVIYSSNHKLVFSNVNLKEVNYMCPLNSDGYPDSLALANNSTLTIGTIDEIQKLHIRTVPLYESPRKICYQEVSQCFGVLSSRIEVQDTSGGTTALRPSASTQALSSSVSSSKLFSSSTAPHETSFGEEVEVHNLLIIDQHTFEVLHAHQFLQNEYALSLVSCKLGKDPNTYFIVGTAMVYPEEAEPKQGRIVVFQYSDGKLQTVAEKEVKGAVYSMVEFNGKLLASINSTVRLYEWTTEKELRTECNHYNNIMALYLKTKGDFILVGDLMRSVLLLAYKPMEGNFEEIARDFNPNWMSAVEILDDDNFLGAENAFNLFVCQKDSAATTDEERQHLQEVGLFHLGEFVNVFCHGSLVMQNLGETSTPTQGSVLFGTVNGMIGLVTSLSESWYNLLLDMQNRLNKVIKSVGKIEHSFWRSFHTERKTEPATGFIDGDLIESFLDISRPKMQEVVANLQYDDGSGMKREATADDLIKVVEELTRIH

O=C1CC[C@H](N2C(=O)c3cccc4c(Cc5ccc(CN6CCOCC6)cc5)ccc2c34)C(=O)N1 (single isomer, unassigned) [Compound 1]
IC50 (RPMI 8226): 0.698 nM | IC50 (SU-DHL-5): 6.37 nM | IC50 (Jeko-1): 43.2 nM | time of maximal Ikaros degradation (IKZF1; 0.001-100 nM, read at 1.5, 3 and 6 hours): 6 h | Ikaros degradation with proteasome or neddylation inhibitor (IKZF1; with bortezomib (10 μM) or MLN-4924 (10 μM), 6 hours): not observed | IC50 (Maver-1): 12.1 nM | degrading IKZF1/3 (IKZF1/3 [1]): highly effective | Statistical Significance Compared to Vehicle (RPMI-8226 tumors; 30 μg/kg PO QD): 0.01 | Statistical Significance Compared to Vehicle (RPMI-8226 tumors; 100 μg/kg PO QD): 0.009 | levels of IKZF1 and IKZF3 versus pre-dose (IKZF1 and IKZF3): smaller | IC50 (Pfeiffer): 1.08 nM | Median Survival (TMD8 DLBCL tumors; Combination of both, PO daily): 30 | Statistical Significance Compared to Vehicle (TMD8 DLBCL tumors; survival, Logrank, Combination): 0.02 | IC50 (DOHH-2): 2.73 nM | IC50 [2]: 1.6 nM | effect on IKZF1/3 (IKZF1/3 [3]): no effect | more potent than pomalidomide (NHL cell lines): more than 100 fold | tumor response (tumor xenografts; daily dosing at 30 μg/kg/day to 100 μg/kg/day, several tumor xenografts): durable tumor regression | efficacy (tumor xenografts; from 3 μg/kg/day to 100 μg/kg/day): dose dependent efficacy | more potent than pomalidomide ([4]; across a panel of cell lines (FIG. 32)): 2-3 magnitudes | IC50 [4, 6]: < 1 nM | maximal inhibition [4, 6]: greater than 50% | more potent than pomalidomide ([4]; eight multiple myeloma cell lines): 1000 fold | IC50 (Rec-1): 0.353 nM | degradation of both IKZF1/3 (IKZF1/3 [5]): > 75% | duration of IKZF1/3 degradation (IKZF1/3 [5]): 24 h | IC50 (H929): 0.073 nM
